The record followed here is patent publication US20250127918A1, “SITE-SELECTIVE CONJUGATION OF A PHARMACEUTICAL AGENT TO AN ANTIBODY USING AN AFFINITY PEPTIDE” (priority 2023, published 2025).

Common to all, as to format: in vivo, mouse
Data set [1] has as its system WT Swiss mice. Kind of data set: Toxicity / safety profile of GLP1 conjugates in WT Swiss mice. Here is the method:
All animal experiments were performed under an MIT institute approved IACUC protocol following federal, state, and local guidelines for the care and use of animals (protocol number #0821-058-24). The studies were performed on 30-35 g (5-8 weeks-old) healthy female Swiss mice, purchased from The Jackson Laboratory (MA, USA). Mice were housed with free access to food and water ad libitum unless stated otherwise for the need of the experiment. […] Intraperitoneal injections (IP) were performed on vigil mice, in the lower right abdominal quadrant. For blood collection, mice were either punctured in the heart (terminal procedure), or gently pressed at the tail following tail pricks (vigil). […] The animals were sacrificed by CO2 inhalation followed by cervical dislocation. All compounds injected in mice were either USP grade, sterile, or filtered using 0.22 μm.
(§1) Six hours before the Ip-GTT, the mice were fasted by removing the food, the enrichment, and by placing them in a new cage to avoid coprophagy. Access to water was, however kept free and ad libitum for the entire experiment. Five minutes before the Ip-GTT, basal glycemia was measured by taking a small drop of blood using tail pricks.
In the other cohorts, 2a,3a was SC administered following either 10 mg/kg (25 nmol), 30 mg/kg (75 nmol), or three injections of 10 mg/kg, 1 per week for 3 weeks (30 mg/kg total, 75 nmol total).
(§2) All animal experiments were performed under an MIT institute approved IACUC protocol following federal, state, and local guidelines for the care and use of animals (protocol number #0821-058-24). The studies were performed either on 35-45 g (12-16 weeks-old) wild-type female Swiss mice, 25-30 g (14-20 weeks-old) male and female C57BL/6J mice, or 55-70 g (16 weeks-old) male and female obese Lep^ob/ob mice, all purchased from The Jackson Laboratory (MA, USA). Mice were housed with free access to normal food diet and water ad libitum unless stated otherwise for the need of the experiment. […] Intraperitoneal injections (IP) were performed on non-anesthetized mice, in the lower right abdominal quadrant. Blood collection for the ELISA assays and biodistributions was performed as a terminal procedure by heart puncture immediately after the sacrifice. For Ip-GTT and Ip-ITT mice were restrained and gently pressed at the tail following tail pricks. The animals were sacrificed by CO2 inhalation followed by cervical dislocation. All compounds injected in mice were either USP grade, sterile, or filtered using 0.22 μm.

For data set [2], the system named is Lep^ob/ob mice. Kind of data set: Safety profile of GLP-1a conjugates in Lep^ob/ob mice. Conditions: 10 mg/kg; for Number of mice showing significant aggressiveness / Number of mice with Piloerection, Moderate: cohort of 3 mice. Here is the method:
In Lep^ob/ob obese mice, two routes were assessed for the 10 mg/kg dose: SC and IP (Table 21). […] Investigations about the PD of 2a,3a following SC injection of 10 mg/kg were pursued in both mice models.
as §2

The test system of data set [3] is WT Swiss mice. Kind of data set: Intraperitoneal glucose tolerance test (Ip-GTT) in WT Swiss mice. As to conditions: Ip-GTT after injection. Here is the method:
as §1

The structures appear in SMILES notation.

For `CC[C@H](C)[C@H](NC(=O)[C@H](Cc1ccccc1)NC(=O)[C@H](CCC(=O)O)NC(=O)[C@H](CCCCNC(=O)COCCOCCNC(=O)COCCOCCNC(=O)CC[C@H](NC(=O)CCCCCCCCCCCCCCCCC(=O)O)C(=O)O)NC(=O)[C@H](C)NC(=O)[C@H](C)NC(=O)[C@H](CCC(N)=O)NC(=O)CNC(=O)[C@H](CCC(=O)O)NC(=O)[C@H](CC(C)C)NC(=O)[C@H](Cc1ccc(O)cc1)NC(=O)[C@H](CO)NC(=O)[C@H](CO)NC(=O)[C@@H](NC(=O)[C@H](CC(=O)O)NC(=O)[C@H](CO)NC(=O)[C@@H](NC(=O)[C@H](Cc1ccccc1)NC(=O)[C@@H](NC(=O)CNC(=O)[C@H](CCC(=O)O)NC(=O)C(C)(C)NC(=O)[C@@H](N)Cc1cnc[nH]1)[C@@H](C)O)[C@@H](C)O)C(C)C)C(=O)N[C@@H](C)C(=O)N[C@@H](Cc1c[nH]c2ccccc12)C(=O)N[C@@H](CC(C)C)C(=O)N[C@H](C(=O)N[C@@H](CCCNC(=N)N)C(=O)NCC(=O)N[C@@H](CCCNC(=N)N)C(=O)NCC(=O)O)C(C)C` [Semaglutide], the “Number of mice with Aggressiveness” value in data set [1] (SC 0.5 mg/kg, cohort of 5 mice) came to 0. For the same compound, the “Number of mice with Piloerection Mild” value in data set [1] (SC 0.5 mg/kg, cohort of 5 mice) was found to be 0; in data set [1] (SC 3 mg/kg, cohort of 5 mice) it was 0; in data set [1] (SC 10 mg/kg, cohort of 15 mice), 0. In data set [1] (SC 0.5 mg/kg, cohort of 5 mice), the “Number of mice with Piloerection Severe” value came to 0. Moreover, the “Number of mice with Piloerection, Moderate” value in data set [1] (SC 0.5 mg/kg, cohort of 5 mice) was determined as 0; in data set [1] (SC 10 mg/kg, cohort of 15 mice, time per cell footnote (¤ over 48 h)) it was 0; in data set [2] (female Lep^ob/ob mice, SC), 3; in data set [2] (male Lep^ob/ob mice, SC), 3. For the same compound, the “Tolerability, both routes (SC and IP)” value in data set [2] (Lep^ob/ob obese mice) was “significantly impact the mice behavior and induce hypoglycemia”. Besides, the “Mean fasting blood glucose” value in data set [2] (female Lep^ob/ob mice, IP) is 104 ± 6 mg/dL; in data set [2] (female Lep^ob/ob mice, SC), 97 ± 7 mg/dL; in data set [2] (male Lep^ob/ob mice, IP) it was 111 ± 14 mg/dL; in data set [2] (male Lep^ob/ob mice, SC), 75 ± 12 mg/dL. The “Number of mice showing significant aggressiveness” value in data set [2] (female Lep^ob/ob mice, IP) was 3; in data set [2] (female Lep^ob/ob mice, SC), 3; in data set [2] (male Lep^ob/ob mice, IP) it was 3; in data set [2] (male Lep^ob/ob mice, SC), 3. In addition, the Hypoglycemia entry in data set [3] is reported as “induce hypoglycemia”.
